Experimental data reported in paper PMC8191789 (2021).

Assays:
[1] = test system: Myc2345_T23 (DNA, G4) TGAGGGTGGGTAGGGTGGGTAA; assay: fluorescence competition (TAMRA quenching restored by unlabeled DNA); settings: K+ (25 mM potassium phosphate, 75 mM KCl); pH 7, 25°C; C50 is concentration of competing unlabeled DNA; 100 nM 3'-TAMRA-Myc2345_T23, PEQ 10:1
[2] = test system: Myc2345 (DNA, G4) TGAGGGTGGGTAGGGTGGGGAA; assay: CD melting (260 nm); settings: K+ 0.6 mM; potassium phosphate, pH 7; 5 μM DNA, 25 μM PEQ
[3] = test system: Myc2345_T23 (DNA, G4) TGAGGGTGGGTAGGGTGGGTAA; assay: NMR solution structure; settings: K+ 10 mM (potassium phosphate); pH 6.5; PEQ:DNA 3:1; end-stacking on 5'- and 3'-tetrads
[4] = test system: Myc2345_T23 (DNA, G4) TGAGGGTGGGTAGGGTGGGTAA; assay: CD melting (260 nm); settings: K+ 0.6 mM; potassium phosphate, pH 7; 5 μM DNA, 25 μM PEQ
[5] = test system: 3'-TAMRA-labeled Myc2345_T23 (DNA, G4) TGAGGGTGGGTAGGGTGGGTAA; assay: TAMRA fluorescence quenching titration; settings: K+ (25 mM potassium phosphate, 75 mM KCl); pH 7, 25°C; 100 nM DNA
[6] = test system: Myc2345 (DNA, G4) TGAGGGTGGGTAGGGTGGGGAA; assay: fluorescence competition (TAMRA quenching restored by unlabeled DNA); settings: K+ (25 mM potassium phosphate, 75 mM KCl); pH 7, 25°C; C50 is concentration of competing unlabeled DNA; 100 nM 3'-TAMRA-Myc2345_T23, PEQ 10:1
[7] = test system: Myc2345 (DNA, G4) TGAGGGTGGGTAGGGTGGGGAA; assay: NMR solution structure; settings: K+ 10 mM (potassium phosphate); pH 7.0; PEQ:DNA 3:1; end-stacking on 5'- and 3'-tetrads

For `COc1cc(/C=C/c2cc(C(N)=O)c3ccccc3[n+]2C)ccc1O`, the C50 [1] was 3.71 µM, the ΔTm [2] was 20.1 ± 0.6 °C and the binding [3] was “yes”. For the same compound, the ΔTm [4] was 21.1 ± 1.3 °C, the binding [5] was “yes” and the C50 [6] was 4.86 µM. The binding [7] was “yes”.
